Test results published in article PMC5080580, “Structural elucidation of estrus urinary lipocalin protein (EULP) and evaluating binding affinity with pheromones using molecular docking and fluorescence study” (Scientific Reports, 2016).

Molecular target: T1, estrus urinary lipocalin protein (EULP)
T1 construct: gene PMP2; native, purified from female rat urine by Sephadex G-50 gel filtration; printed peptides MSNKFL, KFLGTWKLT, KLTSSENFD, NFDEYMKAL, LGTRSLGNL, LAGPTVIIS, ITIRTESGF, GFKNTEISF, FEETTADNR, RKTKSTVTL, KSTVTLAGG, NGNETTIKR, SVVCTRIYE
Assay: fluorescence binding of 2-naphthol probe
Set-up: species or system Rattus rattus
Settings: 10 mM phosphate buffer pH 7.2, room temperature; fluorescent probe

- Kd: 420 ± 60 nM
SMILES: Oc1ccc2ccccc2c1 [2-naphthol]
